Relative cell number data for six compounds are collected here from the supplement of paper PMC7661543.

Test in all cases: relative cell number vs DMSO control (72 h) (% of DMSO); higher = less growth inhibition (more cells)
Conditions in all cases: sgRNA knockout: sgNT

In assay [1] the test system is HCC-38. Here is the method:
(§1)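 QMAP-Seq: a pool of 5 breast cancer cell lines (ZR-75-1, SKBR3, HCC-38, MDA-MB-231, BT-20), each carrying 12 doxycycline-inducible Cas9 sgRNA perturbations (11 knockouts plus non-targeting sgNT), was treated with compounds for 72 h at four 10-fold doses (10 nM-10 uM or 1 nM-1 uM range). Barcodes were amplified and sequenced, and cell number was interpolated from 293T spike-in standard curves. The result is expressed as % of the median of DMSO wells. Two biological replicates.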

Assay [2] deals with SKBR3. On the procedure: as §1
The subject of assay [3] is MDA-MB-231. Here is the method: as §1
Assay [4] concerns BT-20. On the procedure:
as §1

The test system of assay [5] is ZR-75-1. On the procedure:
as §1

The structures appear in SMILES notation. ± gives the standard deviation of the averaged measurements.

Turning to `C=CC(=O)Nc1cc2c(Nc3ccc(F)c(Cl)c3)ncnc2cc1OCCCN1CCOCC1` [Canertinib], the relative cell number in assay [1] (10 nM) amounted to 97 ± 19; in assay [1] (100 nM) it was 110 ± 9.9; in assay [1] (1000 nM), 87 ± 12; in assay [1] (10000 nM), 9.97 ± 5; in assay [2] (10 nM), 81.6 ± 12; in assay [2] (100 nM), 56.6 ± 18. For the same compound, the relative cell number stood at 39.1 ± 14 in assay [2] (1000 nM); 16.3 ± 0.86 in assay [2] (10000 nM); 87.7 ± 26 in assay [3] (10 nM); 60.8 ± 6.4 in assay [3] (100 nM); 78.7 ± 21 in assay [3] (1000 nM); 9.74 ± 5.8 in assay [3] (10000 nM). Further, the relative cell number in assay [4] (10 nM) amounted to 69.3 ± 4.2; in assay [4] (100 nM) it was 59.3 ± 7.5; in assay [4] (1000 nM), 75.3 ± 11; in assay [4] (10000 nM) it was 41.5 ± 21; in assay [5] (10 nM), 117 ± 23; in assay [5] (100 nM) it was 113 ± 22. Besides, the results for the relative cell number in assay [5] (1000 nM) and in assay [5] (10000 nM) were 63.6 ± 13 and 41.2 ± 9.9, respectively.
On to `CC(C)C[C@H](NC(=O)[C@H](CCc1ccccc1)NC(=O)CN1CCOCC1)C(=O)N[C@@H](Cc1ccccc1)C(=O)N[C@@H](CC(C)C)C(=O)[C@@]1(C)CO1` [Carfilzomib], for which the relative cell number in assay [1] (1 nM) is 76.3 ± 6.3; in assay [1] (10 nM), 31.4 ± 4.7; in assay [1] (100 nM) it was 8.48 ± 4; in assay [1] (1000 nM) it was 4.65 ± 0.23; in assay [2] (1 nM) it was 58.5 ± 9.1; in assay [2] (10 nM), 33.5 ± 8.4. Also, the relative cell number in assay [2] (100 nM) came to 11.2 ± 8.9; in assay [2] (1000 nM), 7.64 ± 5.5; in assay [3] (1 nM) it was 83.2 ± 3.2; in assay [3] (10 nM) it was 91 ± 32; in assay [3] (100 nM), 37.8 ± 22; in assay [3] (1000 nM), 18.7 ± 5.8. Also, the relative cell number worked out at 80.9 ± 18 in assay [4] (1 nM); 80.32 ± 0.3 in assay [4] (10 nM); 21.4 ± 4.5 in assay [4] (100 nM); 14.6 ± 1.8 in assay [4] (1000 nM); 73.3 ± 12 in assay [5] (1 nM); 89.9 ± 9.1 in assay [5] (10 nM). For the same compound, the relative cell number was 22.8 ± 13 in assay [5] (100 nM) and 7.73 ± 3.8 in assay [5] (1000 nM).
Consider `COc1cc2c(Oc3ccc4[nH]c(C)cc4c3F)ncnc2cc1OCCCN1CCCC1` [Cediranib], for which the relative cell number in assay [1] (10 nM) was 108 ± 8.3; in assay [1] (100 nM), 100 ± 1.8; in assay [1] (1000 nM), 59.3 ± 0.64; in assay [1] (10000 nM), 9.73 ± 0.54; in assay [2] (10 nM), 103 ± 25; in assay [2] (100 nM), 85.8 ± 14. The relative cell number worked out at 113 ± 29 in assay [2] (1000 nM); 11.1 ± 1.2 in assay [2] (10000 nM); 91.3 ± 3.8 in assay [3] (10 nM); 114 ± 20 in assay [3] (100 nM); 104 ± 33 in assay [3] (1000 nM); 15.9 ± 2.8 in assay [3] (10000 nM). In addition, the relative cell number came out at 104 ± 8.7 in assay [4] (10 nM); 100 ± 29 in assay [4] (100 nM); 104 ± 9 in assay [4] (1000 nM); 27.9 ± 8.5 in assay [4] (10000 nM); 113 ± 5.5 in assay [5] (10 nM); 87.5 ± 7.5 in assay [5] (100 nM). In addition, the relative cell number in assay [5] (1000 nM) turned out to be 86.3 ± 5.5; in assay [5] (10000 nM) it was 10.9 ± 2.5.
For the compound `O=C(O)CCCc1ccc(N(CCCl)CCCl)cc1` [Chlorambucil], the relative cell number is 90.4 ± 5.5 in assay [1] (10 nM); 98.6 ± 12 in assay [1] (100 nM); 96 ± 3.8 in assay [1] (1000 nM); 67.5 ± 2.6 in assay [1] (10000 nM); 107 ± 1.5 in assay [2] (10 nM); 74.5 ± 4.3 in assay [2] (100 nM). The relative cell number in assay [2] (1000 nM) stood at 82.17 ± 0.55; in assay [2] (10000 nM) it was 64.2 ± 2.1; in assay [3] (10 nM) it was 99.2 ± 7.3; in assay [3] (100 nM), 94.9 ± 9.4; in assay [3] (1000 nM) it was 91 ± 18; in assay [3] (10000 nM) it was 63.5 ± 24. For the same compound, the relative cell number in assay [4] (10 nM) turned out to be 100 ± 3; in assay [4] (100 nM), 72.6 ± 16; in assay [4] (1000 nM), 93.2 ± 18; in assay [4] (10000 nM), 81.2 ± 22; in assay [5] (10 nM) it was 81.3 ± 21; in assay [5] (100 nM) it was 83.3 ± 26. Besides, the values for the relative cell number in assay [5] (1000 nM) and in assay [5] (10000 nM) were 78 ± 34 and 86.17 ± 0.75, respectively.
Take `Cc1cc(C2CCCCC2)n(O)c(=O)c1` [Ciclopirox]: the relative cell number came out at 88.3 ± 8.2 in assay [1] (10 nM); 93.6 ± 11 in assay [1] (100 nM); 77.4 ± 3.9 in assay [1] (1000 nM); 13.6 ± 2.9 in assay [1] (10000 nM); 105 ± 24 in assay [2] (10 nM); 83.3 ± 22 in assay [2] (100 nM). Also, the relative cell number was 86.9 ± 17 in assay [2] (1000 nM); 17.3 ± 9.5 in assay [2] (10000 nM); 112 ± 16 in assay [3] (10 nM); 125 ± 41 in assay [3] (100 nM); 49.1 ± 5.4 in assay [3] (1000 nM); 20.4 ± 5.6 in assay [3] (10000 nM). Besides, the relative cell number in assay [4] (10 nM) was 96.4 ± 11; in assay [4] (100 nM) it was 95.2 ± 19; in assay [4] (1000 nM), 65.7 ± 2.8; in assay [4] (10000 nM), 25.2 ± 7.7; in assay [5] (10 nM), 112 ± 34; in assay [5] (100 nM), 93.9 ± 19. The figures for the relative cell number in assay [5] (1000 nM) and in assay [5] (10000 nM) were 41.4 ± 1.6 and 18.3 ± 1.6, respectively.
As to `CN/C(=N\CCSCc1nc[nH]c1C)NC#N` [Cimetidine], the relative cell number in assay [1] (10 nM) stood at 101 ± 16; in assay [1] (100 nM), 97.2 ± 9.8; in assay [1] (1000 nM) it was 88.8 ± 11; in assay [1] (10000 nM), 101 ± 7.5; in assay [2] (10 nM), 78.8 ± 35; in assay [2] (100 nM), 141 ± 62. Further, the relative cell number in assay [2] (1000 nM) is 107.1 ± 0.53; in assay [2] (10000 nM) it was 110 ± 13; in assay [3] (10 nM) it was 103 ± 22; in assay [3] (100 nM), 106 ± 46; in assay [3] (1000 nM), 95.5 ± 9.1; in assay [3] (10000 nM), 92.2 ± 9.2. Also, the relative cell number amounted to 111 ± 2.3 in assay [4] (10 nM); 108 ± 20 in assay [4] (100 nM); 100 ± 8.2 in assay [4] (1000 nM); 106 ± 15 in assay [4] (10000 nM); 103 ± 4.7 in assay [5] (10 nM); 121 ± 47 in assay [5] (100 nM). The relative cell number amounted to 101 ± 17 in assay [5] (1000 nM) and 133 ± 39 in assay [5] (10000 nM).
